Data from patent US11046686B2, “Thiadiazole IRAK4 compounds” (Gilead Sciences, Inc., priority 2018, dated 2021).
Read-outs that look alike come from different tables or passages of the source.

Tests used:
[1] = system: TNFα; experiment: IRAK4 Monocyte TNFα Cell Based Assay; parameters: species or system human; conditions: read-out: EC50 MONO TNF HTRF
How it was run: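 Human monocytes (5,000/well) pretreated with compound 1 h at 37 °C (0.1% DMSO final), then stimulated with 50 pg/ml LPS for 4 h. Secreted TNFα measured by TR-FRET two-antibody detection after overnight incubation at room temperature; % control relative to unstimulated and LPS-stimulated wells.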

[2] = molecular target: IRAK4 enzyme (Homo sapiens (Human), UniProt Q9NWZ3); experiment: IRAK4 Biochemical Assay (TR-FRET, STK1 KinEASE)
Sequence of IRAK4 enzyme (Q9NWZ3 whole entry): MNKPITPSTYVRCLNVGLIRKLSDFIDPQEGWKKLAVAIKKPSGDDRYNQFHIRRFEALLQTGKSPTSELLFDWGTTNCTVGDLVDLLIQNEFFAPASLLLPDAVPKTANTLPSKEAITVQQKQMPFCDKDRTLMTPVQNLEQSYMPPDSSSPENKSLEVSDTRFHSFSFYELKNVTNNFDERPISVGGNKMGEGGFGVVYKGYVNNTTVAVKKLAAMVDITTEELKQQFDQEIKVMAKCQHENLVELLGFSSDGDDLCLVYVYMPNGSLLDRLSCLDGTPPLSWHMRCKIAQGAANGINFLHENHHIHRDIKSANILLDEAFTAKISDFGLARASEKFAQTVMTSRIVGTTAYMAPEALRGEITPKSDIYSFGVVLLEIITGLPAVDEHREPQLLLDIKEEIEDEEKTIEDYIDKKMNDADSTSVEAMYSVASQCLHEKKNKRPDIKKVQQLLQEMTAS
Protocol: IRAK4 enzyme (Carna Biosciences, Chuo-ku, Kobe, Japan) activity was measured by detecting phosphorylated peptide substrate formation using an antibody against the phosphorylated peptide substrate. This is a time-resolved fluorescence resonance energy transfer (TR-FRET) immunoassay, based on the STK1 KinEASE Assay (Cisbio, Bedford, Mass.). The assay was designed as a simple two-step, endpoint assay (a 5 μl enzyme reaction followed by 5 μl stop and detect Solution) performed in ProxiPlate-384 Plus plates (Perkin Elmer, Waltham, Mass.). […] Compounds diluted in DMSO were spotted into 384 well plates using a Labcyte® Echo 550 Liquid Handling System prior to addition of IRAK4 enzyme and peptide substrate. Reaction solutions were delivered using a Multi-Flo (Bio-Tek Instruments). The enzyme and peptide solution was incubated with compound for 15 minutes at room temp before the reaction was initiated by the addition of ATP. The standard 5 μl reaction mixture contained 500 μM ATP, […] peptide (STK1 Peptide), 0.75 nM of IRAK4 in reaction buffer (50 mM HEPES, pH 7.0, 0.02% NaN3, 0.01% BSA, 0.1 mM Orthovanadate, 5 mM […], 0.025% NP-40, 1 mM DTT). After 120 min of incubation at room temperature, 5 μl of Stop and Detect Solution (1:100 Cryptate labeled anti-phosphorylated peptide antibody solution and 125 nM Tracer in a 50 mM HEPES pH 7.0 detection buffer containing sufficient EDTA) was added. The plate was then further incubated for 60 minutes at room temperature and read on Envision 2103 Multilabeled reader (PerkinElmer) with excitation/emission/FRET emission at 340 nm/615 nm665 nm, respectively. Fluorescence intensities at 615 nm and 665 nm emission wavelengths were expressed as aratio (665 nm/615 nm). Percentage of inhibition was calculated as below: % Inhibition=100×(Ratiosample−Ratio0% Inhibition)/(Ratio100% Inhibition−Ratio0% Inhibition)
The 0% inhibition value comes from control wells lacking inhibitor.

[3] = human monocytes, second part of Table 2, compounds 33-343, unit inferred
[4] = second part of Table 2, compounds 33-343, unit inferred, read-out: IC50 IRAK4-HTBS
[5] = Homo sapiens, Monocyte, human monocytes, second part of Table 2, compounds 33-343, unit inferred

| SMILES | EC50 [1, 3] | IC50 [2, 4] | IC50 [2] | also measured |
| --- | --- | --- | --- | --- |
| CC(C)Nc1cc(-c2ccc3cc(C#N)cnn23)ncc1-c1nnc([C@@H]2C[C@H]2C(C)(C)O)s1 (single isomer, unassigned; isomer 1) [132 Isomer 1] | 12.5 nM | 1.29 nM | – | – |
| CC(C)(O)[C@H]1C[C@@H]1c1nnc(-c2cnc(-c3ccc4cc(C#N)cnn34)cc2NC2COC2)s1 (single isomer, unassigned; isomer 1) [136 Isomer 1] | 4.2 nM | 0.57 nM | – | – |
| CC(=O)N[C@@H]1CCN(c2nnc(-c3cnc(-c4ccc5cc(C#N)cnn45)cc3NC3(C)COC3)s2)CC1(F)F (single isomer, unassigned; isomer 1) [147 Isomer 1] | 8.2 nM | 0.63 nM | – | – |
| CC(C)Nc1cc(-c2ccc3cc(C#N)cnn23)ncc1-c1nnc([C@H]2C[C@@H]2C(C)(C)O)s1 (single isomer, unassigned; isomer 2) [132 Isomer 2] | 15.2 nM | 1.3 nM | – | – |
| CC(C)(O)[C@@H]1C[C@H]1c1nnc(-c2cnc(-c3ccc4cc(C#N)cnn34)cc2NC2COC2)s1 (single isomer, unassigned; isomer 2) [136 Isomer 2] | 4 nM | 0.53 nM | – | – |
| CC(=O)N[C@H]1CCN(c2nnc(-c3cnc(-c4ccc5cc(C#N)cnn45)cc3NC3(C)COC3)s2)CC1(F)F (single isomer, unassigned; isomer 2) [147 Isomer 2] | 24.2 nM | 0.62 nM | – | – |
| CC(C)(O)[C@@H]1C[C@@H]1c1nnc(-c2cnc(-c3ccc4cc(C#N)cnn34)cc2NC2COC2)s1 (single isomer, unassigned; isomer 3) [136 Isomer 3] | 39 nM | 0.64 nM | – | – |
| CC(C)(O)[C@H]1C[C@H]1c1nnc(-c2cnc(-c3ccc4cc(C#N)cnn34)cc2NC2COC2)s1 (single isomer, unassigned; isomer 4) [136 Isomer 4] | 30.5 nM | 0.74 nM | – | – |
| CC(C)Nc1cc(-c2ccc3cc(C#N)cnn23)ncc1-c1nnc(C(=O)N2CCC[C@@H]2CN)s1 [Compound 230, (R)-7-(5-(5-(2-(aminomethyl)pyrrolidine-1-carbonyl)-1,3,4-thiadiazol-2-yl)-4-(isopropylamino)pyridin-2-yl)pyrrolo[1,2-b]pyridazine-3-carbonitrile] | – | – | 0.74 nM | – |
| CC(=O)NC1CC2(C1)CN(c1nnc(-c3cnc(-c4ccc5cc(C#N)cnn45)cc3NC(C)C)s1)C2 [Compound 231, N-(2-(5-(6-(3-cyanopyrrolo[1,2-b]pyridazin-7-yl)-4-(isopropylamino)pyridin-3-yl)-1,3,4-thiadiazol-2-yl)-2-azaspiro[3.3]heptan-6-yl)acetamide] | – | – | 1.17 nM | EC50 [1, 5]: 22.2 nM |
| CC(C)Nc1cc(-c2ccc3cc(C#N)cnn23)ncc1-c1nnc(N2CC3CC(C2)O3)s1 [Compound 233, 7-(5-(5-(6-oxa-3-azabicyclo[3.1.1]heptan-3-yl)-1,3,4-thiadiazol-2-yl)-4-(isopropylamino)pyridin-2-yl)pyrrolo[1,2-b]pyridazine-3-carbonitrile] | – | – | 0.35 nM | EC50 ([1]; Homo sapiens, Monocyte): 6.4 nM |
| CC(C)Nc1cc(-c2ccc3cc(C#N)cnn23)ncc1-c1nnc(N2C3COCC2C3)s1 [Compound 234, 7-(5-(5-(3-oxa-6-azabicyclo[3.1.1]heptan-6-yl)-1,3,4-thiadiazol-2-yl)-4-(isopropylamino)pyridin-2-yl)pyrrolo[1,2-b]pyridazine-3-carbonitrile] | – | – | 1.28 nM | EC50 [1, 5]: 178 nM |
| CC(C)Nc1cc(-c2ccc3cc(C#N)cnn23)ncc1-c1nnc(N2CC3CCC(C2)O3)s1 [Compound 235, 7-(5-(5-(8-oxa-3-azabicyclo[3.2.1]octan-3-yl)-1,3,4-thiadiazol-2-yl)-4-(isopropylamino)pyridin-2-yl)pyrrolo[1,2-b]pyridazine-3-carbonitrile] | – | – | 0.48 nM | EC50 [1, 5]: 4.4 nM |
| CC(C)Nc1cc(-c2ccc3cc(C#N)cnn23)ncc1-c1nnc(N2C3CCC2COC3)s1 [Compound 236, 7-(5-(5-(3-oxa-8-azabicyclo[3.2.1]octan-8-yl)-1,3,4-thiadiazol-2-yl)-4-(isopropylamino)pyridin-2-yl)pyrrolo[1,2-b]pyridazine-3-carbonitrile] | – | – | 0.83 nM | EC50 ([1]; Homo sapiens, Monocyte): 25.8 nM |
| CC(=O)NC12CCC(c3nnc(-c4cnc(-c5ccc6cc(C#N)cnn56)cc4N[C@H](C)C#N)s3)(CC1)CC2 [Example 72, (R)—N-(4-(5-(4-((1-cyanoethyl)amino)-6-(3-cyanopyrrolo[1,2-b]pyridazin-7-yl)pyridin-3-yl)-1,3,4-thiadiazol-2-yl)bicyclo[2.2.2]octan-1-yl)acetamide] | – | – | 0.54 nM | – |
| CC(C)Nc1cc(-c2ccc3cc(C#N)cnn23)ncc1-c1nnc(N2C[C@H]3CC[C@@H](C2)[C@@H]3NC(=O)[C@@H](C)O)s1 [Example 90, (R)—N-((1R,5S,8s)-3-(5-(6-(3-cyanopyrrolo[1,2-b]pyridazin-7-yl)-4-(isopropylamino)pyridin-3-yl)-1,3,4-thiadiazol-2-yl)-3-azabicyclo[3.2.1]octan-8-yl)-2-hydroxypropanamide] | – | – | 1.39 nM | – |
| CC(C)Nc1cc(-c2ccc3cc(C#N)cnn23)ncc1-c1nnc(N2C[C@H]3CC[C@@H](C2)[C@@H]3NC(=O)N2CCN(C)CC2)s1 [Example 96, N-((1R,5S,8s)-3-(5-(6-(3-cyanopyrrolo[1,2-b]pyridazin-7-yl)-4-(isopropylamino)pyridin-3-yl)-1,3,4-thiadiazol-2-yl)-3-azabicyclo[3.2.1]octan-8-yl)-4-methylpiperazine-1-carboxamide] | – | – | 0.58 nM | – |
| CC(=O)N1CCN(C(=O)N[C@@H]2[C@@H]3CC[C@H]2CN(c2nnc(-c4cnc(-c5ccc6cc(C#N)cnn56)cc4NC(C)C)s2)C3)CC1 [Example 104, 4-acetyl-N-((1R,5S,8s)-3-(5-(6-(3-cyanopyrrolo[1,2-b]pyridazin-7-yl)-4-(isopropylamino)pyridin-3-yl)-1,3,4-thiadiazol-2-yl)-3-azabicyclo[3.2.1]octan-8-yl)piperazine-1-carboxamide] | – | – | 0.99 nM | – |
| CC(C)Nc1cc(-c2ccc3cc(C#N)cnn23)ncc1-c1nnc(C2CCNCC2)s1 [Example 129, 7-(4-(isopropylamino)-5-(5-(piperidin-4-yl)-1,3,4-thiadiazol-2-yl)pyridin-2-yl)pyrrolo[1,2-b]pyridazine-3-carbonitrile] | – | – | 0.59 nM | – |
| CC(=O)NC12CCC(c3nnc(-c4cnc(-c5ccc6cc(C#N)cnn56)cc4NC4COC4)s3)(CC1)OC2 [Example 198, N-(1-(5-(6-(3-cyanopyrrolo[1,2-b]pyridazin-7-yl)-4-(oxetan-3-ylamino)pyridin-3-yl)-1,3,4-thiadiazol-2-yl)-2-oxabicyclo[2.2.2]octan-4-yl)acetamide] | – | – | 0.79 nM | – |
| CC(C)Nc1cc(-c2ccc3cc(C#N)cnn23)ncc1-c1nnc(C(=O)N2CCC[C@H]2CN)s1 [Example 229, (S)-7-(5-(5-(2-(aminomethyl)pyrrolidine-1-carbonyl)-1,3,4-thiadiazol-2-yl)-4-(isopropylamino)pyridin-2-yl)pyrrolo[1,2-b]pyridazine-3-carbonitrile] | – | – | 0.64 nM | – |
| CC(C)Nc1cc(-c2ccc3cc(C#N)cnn23)ncc1-c1nnc([C@H]2C[C@H](NC3COC3)C2)s1 [Example 283, 7-(4-(isopropylamino)-5-(5-((1r,3r)-3-(oxetan-3-ylamino)cyclobutyl)-1,3,4-thiadiazol-2-yl)pyridin-2-yl)pyrrolo[1,2-b]pyridazine-3-carbonitrile] | – | – | 0.66 nM | – |
